One assay deals with T1, Estrogen receptor (Homo sapiens, UniProt P03372).
T1 sequence (P03372 whole entry): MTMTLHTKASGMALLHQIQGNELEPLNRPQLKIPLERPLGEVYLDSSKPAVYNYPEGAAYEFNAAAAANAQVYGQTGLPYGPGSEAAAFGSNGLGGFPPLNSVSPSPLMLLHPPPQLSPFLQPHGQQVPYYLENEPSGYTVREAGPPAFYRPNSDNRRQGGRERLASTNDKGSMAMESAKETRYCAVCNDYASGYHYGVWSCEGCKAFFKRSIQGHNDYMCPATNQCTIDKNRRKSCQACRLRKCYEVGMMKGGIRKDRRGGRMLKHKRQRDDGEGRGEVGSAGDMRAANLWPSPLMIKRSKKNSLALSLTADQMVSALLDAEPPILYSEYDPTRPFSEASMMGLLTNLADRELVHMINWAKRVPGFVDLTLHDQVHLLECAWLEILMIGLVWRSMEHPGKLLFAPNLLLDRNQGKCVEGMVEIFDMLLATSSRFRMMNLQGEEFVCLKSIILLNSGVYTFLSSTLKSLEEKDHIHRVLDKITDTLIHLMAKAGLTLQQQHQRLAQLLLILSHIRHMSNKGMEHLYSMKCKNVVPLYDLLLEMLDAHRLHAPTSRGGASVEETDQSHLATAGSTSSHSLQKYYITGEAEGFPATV

In assay [1] the target is Growth hormone secretagogue receptor type 1 (Homo sapiens, UniProt Q92847).
Growth hormone secretagogue receptor type 1, sequence (Q92847 whole entry): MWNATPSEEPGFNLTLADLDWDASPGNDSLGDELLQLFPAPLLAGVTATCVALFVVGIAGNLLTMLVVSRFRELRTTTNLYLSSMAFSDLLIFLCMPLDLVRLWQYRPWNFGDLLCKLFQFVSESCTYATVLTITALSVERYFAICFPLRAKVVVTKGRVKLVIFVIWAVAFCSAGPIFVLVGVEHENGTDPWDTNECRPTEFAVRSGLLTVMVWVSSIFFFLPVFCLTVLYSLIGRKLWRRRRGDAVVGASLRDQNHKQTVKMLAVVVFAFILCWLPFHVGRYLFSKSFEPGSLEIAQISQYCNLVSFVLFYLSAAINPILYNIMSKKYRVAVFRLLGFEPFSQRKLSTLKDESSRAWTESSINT
The target of assay [2] is Sodium-dependent dopamine transporter (Homo sapiens, UniProt Q01959).
Sodium-dependent dopamine transporter, sequence (Q01959 whole entry): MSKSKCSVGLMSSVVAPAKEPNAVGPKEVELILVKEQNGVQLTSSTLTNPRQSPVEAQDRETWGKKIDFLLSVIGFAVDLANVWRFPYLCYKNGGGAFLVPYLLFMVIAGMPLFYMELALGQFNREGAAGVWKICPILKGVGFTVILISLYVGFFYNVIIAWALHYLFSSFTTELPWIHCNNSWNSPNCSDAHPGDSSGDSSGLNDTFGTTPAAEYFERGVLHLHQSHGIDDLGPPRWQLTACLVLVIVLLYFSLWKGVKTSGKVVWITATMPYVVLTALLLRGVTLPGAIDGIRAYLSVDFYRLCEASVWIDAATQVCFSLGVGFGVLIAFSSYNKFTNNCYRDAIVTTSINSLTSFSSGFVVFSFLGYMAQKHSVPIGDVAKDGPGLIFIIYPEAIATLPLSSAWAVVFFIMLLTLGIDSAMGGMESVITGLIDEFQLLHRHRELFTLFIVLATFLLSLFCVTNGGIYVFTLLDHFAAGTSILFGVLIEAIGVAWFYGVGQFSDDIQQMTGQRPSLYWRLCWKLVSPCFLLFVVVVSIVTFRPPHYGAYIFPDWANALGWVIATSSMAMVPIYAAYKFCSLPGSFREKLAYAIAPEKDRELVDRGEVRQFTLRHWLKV
The target of assay [3] is 5-hydroxytryptamine receptor 2B (Homo sapiens, UniProt P41595). It is filed as functional, cell-based.
5-hydroxytryptamine receptor 2B, sequence (P41595 whole entry): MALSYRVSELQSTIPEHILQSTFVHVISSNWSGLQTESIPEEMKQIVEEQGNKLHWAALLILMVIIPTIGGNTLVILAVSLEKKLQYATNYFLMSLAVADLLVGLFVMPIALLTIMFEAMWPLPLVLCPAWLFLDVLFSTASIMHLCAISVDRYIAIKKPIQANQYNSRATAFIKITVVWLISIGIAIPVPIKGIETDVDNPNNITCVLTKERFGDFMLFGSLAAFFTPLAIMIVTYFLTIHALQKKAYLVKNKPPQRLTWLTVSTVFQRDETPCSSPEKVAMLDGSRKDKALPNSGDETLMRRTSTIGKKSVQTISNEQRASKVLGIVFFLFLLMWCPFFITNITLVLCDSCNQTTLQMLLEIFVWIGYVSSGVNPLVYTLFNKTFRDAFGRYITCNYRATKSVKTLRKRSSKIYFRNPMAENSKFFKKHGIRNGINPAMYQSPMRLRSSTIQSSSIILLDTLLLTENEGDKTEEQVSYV
In assay [4] the target is T2, Muscarinic acetylcholine receptor M2 (Homo sapiens, UniProt P08172).
T2 sequence (P08172 whole entry): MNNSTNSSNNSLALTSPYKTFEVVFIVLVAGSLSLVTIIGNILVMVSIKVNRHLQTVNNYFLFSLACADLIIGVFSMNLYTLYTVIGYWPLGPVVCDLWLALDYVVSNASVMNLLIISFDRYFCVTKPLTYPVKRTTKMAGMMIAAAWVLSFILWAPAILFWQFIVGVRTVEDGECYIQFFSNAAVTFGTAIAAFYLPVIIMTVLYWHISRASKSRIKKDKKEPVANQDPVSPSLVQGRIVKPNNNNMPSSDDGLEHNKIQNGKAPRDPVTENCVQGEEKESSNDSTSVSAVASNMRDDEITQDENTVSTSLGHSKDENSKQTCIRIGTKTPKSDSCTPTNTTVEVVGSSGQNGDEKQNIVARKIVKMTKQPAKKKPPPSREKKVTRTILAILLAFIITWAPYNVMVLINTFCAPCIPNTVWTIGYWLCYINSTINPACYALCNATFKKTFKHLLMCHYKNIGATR
The assay is classed as functional, cell-based.

In assay [5] the target is 3',5'-cyclic-AMP phosphodiesterase 4D (Homo sapiens, UniProt Q08499). The assay is classed as functional.
3',5'-cyclic-AMP phosphodiesterase 4D, sequence (Q08499 whole entry): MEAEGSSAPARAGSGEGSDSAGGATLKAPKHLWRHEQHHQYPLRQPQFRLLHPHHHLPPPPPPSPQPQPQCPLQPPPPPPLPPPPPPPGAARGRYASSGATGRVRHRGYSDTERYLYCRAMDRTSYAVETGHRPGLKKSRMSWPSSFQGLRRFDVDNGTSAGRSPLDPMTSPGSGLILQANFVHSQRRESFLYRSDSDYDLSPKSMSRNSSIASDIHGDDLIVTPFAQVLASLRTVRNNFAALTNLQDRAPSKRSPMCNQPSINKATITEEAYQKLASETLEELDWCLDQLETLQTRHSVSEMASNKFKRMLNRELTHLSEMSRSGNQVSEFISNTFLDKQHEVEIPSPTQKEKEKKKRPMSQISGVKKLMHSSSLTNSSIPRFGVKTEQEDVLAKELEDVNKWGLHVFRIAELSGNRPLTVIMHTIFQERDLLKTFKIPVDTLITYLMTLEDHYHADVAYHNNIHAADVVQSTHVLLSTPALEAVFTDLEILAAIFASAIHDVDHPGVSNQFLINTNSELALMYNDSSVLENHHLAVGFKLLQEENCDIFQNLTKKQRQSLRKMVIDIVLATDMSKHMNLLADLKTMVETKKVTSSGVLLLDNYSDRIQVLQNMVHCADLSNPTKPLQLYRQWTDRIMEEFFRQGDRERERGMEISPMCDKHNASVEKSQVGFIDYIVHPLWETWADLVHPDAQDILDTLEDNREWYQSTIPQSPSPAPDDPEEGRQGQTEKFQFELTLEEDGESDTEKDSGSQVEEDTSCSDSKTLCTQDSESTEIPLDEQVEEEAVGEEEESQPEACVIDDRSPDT
The target in assay [6] is Beta-1 adrenergic receptor (Homo sapiens, UniProt P08588). It is filed as functional.
Beta-1 adrenergic receptor, sequence (P08588 whole entry): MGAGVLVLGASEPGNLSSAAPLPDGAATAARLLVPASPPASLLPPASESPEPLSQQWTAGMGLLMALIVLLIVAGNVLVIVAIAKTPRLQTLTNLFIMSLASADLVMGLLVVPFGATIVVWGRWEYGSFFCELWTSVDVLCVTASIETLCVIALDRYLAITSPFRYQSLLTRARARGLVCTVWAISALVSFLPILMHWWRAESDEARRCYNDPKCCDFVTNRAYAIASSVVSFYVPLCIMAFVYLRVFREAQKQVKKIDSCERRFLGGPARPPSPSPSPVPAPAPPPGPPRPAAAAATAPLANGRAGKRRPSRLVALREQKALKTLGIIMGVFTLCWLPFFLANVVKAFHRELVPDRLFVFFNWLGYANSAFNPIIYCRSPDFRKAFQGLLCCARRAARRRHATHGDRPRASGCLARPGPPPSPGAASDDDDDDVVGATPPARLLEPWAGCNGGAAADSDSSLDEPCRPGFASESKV
The next assay addresses D(1A) dopamine receptor (Homo sapiens, UniProt P21728). The assay is classed as functional, cell-based.
The next assay concerns the target T3, Glucocorticoid receptor (Homo sapiens, UniProt P04150).
T3 sequence (P04150 whole entry): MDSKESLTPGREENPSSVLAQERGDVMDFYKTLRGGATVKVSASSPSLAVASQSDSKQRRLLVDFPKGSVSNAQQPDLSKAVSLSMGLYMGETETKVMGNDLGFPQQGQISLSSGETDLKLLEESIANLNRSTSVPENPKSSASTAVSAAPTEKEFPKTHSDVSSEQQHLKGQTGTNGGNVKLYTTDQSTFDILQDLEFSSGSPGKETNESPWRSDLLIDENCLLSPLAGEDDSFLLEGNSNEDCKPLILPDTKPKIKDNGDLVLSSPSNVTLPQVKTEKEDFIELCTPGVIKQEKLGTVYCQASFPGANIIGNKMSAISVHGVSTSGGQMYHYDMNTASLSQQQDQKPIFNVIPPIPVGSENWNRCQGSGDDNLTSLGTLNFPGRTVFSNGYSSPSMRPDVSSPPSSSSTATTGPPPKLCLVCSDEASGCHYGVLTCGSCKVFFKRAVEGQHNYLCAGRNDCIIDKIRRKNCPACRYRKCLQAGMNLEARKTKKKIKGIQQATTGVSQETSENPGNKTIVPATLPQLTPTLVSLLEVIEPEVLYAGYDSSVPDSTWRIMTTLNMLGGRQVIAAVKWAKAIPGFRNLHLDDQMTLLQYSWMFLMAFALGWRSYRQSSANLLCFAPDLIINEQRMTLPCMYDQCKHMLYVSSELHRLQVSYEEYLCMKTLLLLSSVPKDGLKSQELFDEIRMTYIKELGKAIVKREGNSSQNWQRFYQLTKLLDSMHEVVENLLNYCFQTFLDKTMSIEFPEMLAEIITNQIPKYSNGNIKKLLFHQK

The target in assay [7] is Voltage-gated inwardly rectifying potassium channel KCNH2 (Homo sapiens, UniProt Q12809). The assay is classed as functional.
Voltage-gated inwardly rectifying potassium channel KCNH2, sequence (Q12809 whole entry): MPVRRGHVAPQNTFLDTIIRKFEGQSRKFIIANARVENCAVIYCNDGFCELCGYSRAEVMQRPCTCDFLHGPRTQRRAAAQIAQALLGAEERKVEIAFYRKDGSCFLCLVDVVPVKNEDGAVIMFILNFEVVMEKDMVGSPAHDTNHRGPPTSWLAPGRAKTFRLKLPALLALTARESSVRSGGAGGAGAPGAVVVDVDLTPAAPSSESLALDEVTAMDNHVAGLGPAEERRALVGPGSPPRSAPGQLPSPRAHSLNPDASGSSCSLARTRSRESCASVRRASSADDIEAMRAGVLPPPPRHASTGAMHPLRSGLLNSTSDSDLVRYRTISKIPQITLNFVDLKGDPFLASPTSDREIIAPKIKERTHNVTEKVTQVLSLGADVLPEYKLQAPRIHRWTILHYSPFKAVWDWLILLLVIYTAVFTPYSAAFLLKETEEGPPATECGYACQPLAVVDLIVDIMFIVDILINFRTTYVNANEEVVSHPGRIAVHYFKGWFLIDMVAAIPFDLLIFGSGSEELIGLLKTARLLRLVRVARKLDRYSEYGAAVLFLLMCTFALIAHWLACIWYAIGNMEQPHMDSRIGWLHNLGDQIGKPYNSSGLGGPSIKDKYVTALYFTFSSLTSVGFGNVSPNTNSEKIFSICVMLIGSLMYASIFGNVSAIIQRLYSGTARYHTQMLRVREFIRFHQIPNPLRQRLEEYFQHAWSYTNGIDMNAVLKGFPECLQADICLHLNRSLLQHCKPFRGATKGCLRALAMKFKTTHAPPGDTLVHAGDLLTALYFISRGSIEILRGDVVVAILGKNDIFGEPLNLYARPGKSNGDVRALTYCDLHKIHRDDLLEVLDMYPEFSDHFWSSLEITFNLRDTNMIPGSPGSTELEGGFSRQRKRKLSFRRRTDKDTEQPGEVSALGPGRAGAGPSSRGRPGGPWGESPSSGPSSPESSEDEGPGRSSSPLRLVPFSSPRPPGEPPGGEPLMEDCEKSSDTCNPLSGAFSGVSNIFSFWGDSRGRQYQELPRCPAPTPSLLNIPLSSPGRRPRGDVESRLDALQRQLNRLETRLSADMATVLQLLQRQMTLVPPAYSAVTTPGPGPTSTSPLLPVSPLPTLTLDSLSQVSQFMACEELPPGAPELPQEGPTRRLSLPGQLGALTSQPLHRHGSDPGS
Assay [8] deals with T4, Gastrin/cholecystokinin type B receptor (Homo sapiens, UniProt P32239).
T4 sequence (P32239 whole entry): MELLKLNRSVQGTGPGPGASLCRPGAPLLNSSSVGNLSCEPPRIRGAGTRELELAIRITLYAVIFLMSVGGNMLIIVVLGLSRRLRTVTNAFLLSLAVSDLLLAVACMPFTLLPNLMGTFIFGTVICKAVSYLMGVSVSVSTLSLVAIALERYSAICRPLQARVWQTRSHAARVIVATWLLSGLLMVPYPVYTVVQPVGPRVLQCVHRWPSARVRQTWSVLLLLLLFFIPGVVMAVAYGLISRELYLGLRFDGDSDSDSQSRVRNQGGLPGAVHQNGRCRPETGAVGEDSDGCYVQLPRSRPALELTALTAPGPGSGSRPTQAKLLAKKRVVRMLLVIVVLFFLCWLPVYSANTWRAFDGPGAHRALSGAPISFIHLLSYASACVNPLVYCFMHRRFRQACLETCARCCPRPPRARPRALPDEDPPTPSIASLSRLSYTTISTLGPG
Note: assay procedure not described here.

D(1A) dopamine receptor, sequence (P21728 whole entry): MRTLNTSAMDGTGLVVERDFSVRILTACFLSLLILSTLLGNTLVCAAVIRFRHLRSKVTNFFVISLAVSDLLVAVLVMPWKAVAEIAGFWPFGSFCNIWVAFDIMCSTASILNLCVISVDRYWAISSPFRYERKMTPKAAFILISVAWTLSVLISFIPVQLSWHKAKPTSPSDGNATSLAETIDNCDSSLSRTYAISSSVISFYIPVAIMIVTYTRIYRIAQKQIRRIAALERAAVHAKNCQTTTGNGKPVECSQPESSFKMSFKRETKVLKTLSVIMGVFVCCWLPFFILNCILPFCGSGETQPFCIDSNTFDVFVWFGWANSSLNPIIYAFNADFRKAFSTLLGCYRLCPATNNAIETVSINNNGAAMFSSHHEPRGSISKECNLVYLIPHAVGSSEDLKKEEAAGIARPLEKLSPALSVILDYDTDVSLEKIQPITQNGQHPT

Usually AC50 stands for the concentration giving half of the maximal activity seen. Higher therefore signals activity only at high concentration. For `C[N@+]1(CCF)[C@@H]2CC[C@H]1C[C@@H](OC(=O)C(O)(c1ccccc1)c1ccccc1)C2`, the half-maximal activity concentration (AC50) is greater than 30 µM at Estrogen receptor; greater than 30 µM in [1]; greater than 30 µM in [2]; greater than 30 µM in assay [3]; 0.0145 µM in [4]; greater than 30 µM in assay [5]. Besides, the AC50 in assay [6] is greater than 30 µM; at D(1A) dopamine receptor, greater than 30 µM; at Glucocorticoid receptor it was greater than 30 µM; in assay [7] it was 2.38 µM; in assay [8] it was greater than 30 µM.

Take `CC(=O)O[C@H](CC(=O)[O-])C[N+](C)(C)C` [ACETYLCARNITINE]: the AC50 (on Estrogen receptor; in assay [1]; in assay [2]; in [3]; in assay [4]; in assay [5]) was greater than 30 µM each time. Further, the concentration at half-maximal activity (AC50) (in assay [6]; on D(1A) dopamine receptor; on Glucocorticoid receptor; in [7]; in assay [8]) was greater than 30 µM throughout.

With `Cn1c(=O)cc(N2CCC[C@@H](N)C2)n(Cc2ccccc2C#N)c1=O` [ALOGLIPTIN], the AC50 is greater than 30 µM on Estrogen receptor; greater than 30 µM in assay [1]; greater than 10 µM in assay [2]; greater than 30 µM in assay [5]; greater than 10 µM in [6]; greater than 30 µM at Glucocorticoid receptor. The molecule also came in with an AC50 in [8] greater than 30 µM.

For `CCN1CCCC1CNC(=O)c1cc(S(=O)(=O)CC)c(N)cc1OC` (centres undefined) [AMISULPRIDE], the half-maximal activity concentration (AC50) (on Estrogen receptor; in assay [1]; in assay [4]; in assay [5]; in assay [6]; on D(1A) dopamine receptor) was greater than 30 µM each time. The AC50 (on Glucocorticoid receptor; in [8]) was greater than 30 µM each time.

Consider `O=C(O)CCNC(=O)c1ccccc1` [BETAMIPRON], for which the AC50 (on Estrogen receptor; in assay [1]; in assay [2]; in [3]; in assay [4]; in assay [5]) was greater than 30 µM throughout. Moreover, the AC50 (in assay [6]; on D(1A) dopamine receptor; at Glucocorticoid receptor; in [7]; in assay [8]) was greater than 30 µM each time.

Turning to `Oc1ccc2c(c1)[C@@]13CCCC[C@@]1(O)[C@@H](C2)N(CC1CCC1)CC3` [BUTORPHANOL], the AC50 (on Estrogen receptor; in [1]; in assay [2]; in assay [3]; in [4]; in assay [5]) was greater than 30 µM throughout. In addition, the AC50 in assay [6] was greater than 30 µM; on D(1A) dopamine receptor it was greater than 30 µM; at Glucocorticoid receptor, greater than 30 µM; in assay [7], 12 µM; in assay [8], greater than 30 µM.

Consider `C=C1/C(=C\C=C2/CCC[C@]3(C)[C@@H]([C@H](C)/C=C/[C@@H](O)C4CC4)CC[C@@H]23)C[C@@H](O)C[C@@H]1O` [CALCIPOTRIENE], for which the concentration at half-maximal activity (AC50) on Estrogen receptor was greater than 10 µM; in assay [1], greater than 30 µM; in assay [2], greater than 30 µM; in assay [3], greater than 30 µM; in assay [4] it was greater than 30 µM; in assay [5], greater than 30 µM. For the same molecule, the AC50 (in [6]; on D(1A) dopamine receptor; at Glucocorticoid receptor; in assay [7]; in assay [8]) was greater than 30 µM in each case.

For `C=C[C@@]1(C)CC(=O)[C@]2(O)[C@@]3(C)[C@@H](O)CCC(C)(C)[C@@H]3[C@H](O)[C@H](OC(C)=O)[C@@]2(C)O1` [COLFORSIN], the AC50 is greater than 30 µM at Estrogen receptor; greater than 30 µM in assay [1]; greater than 30 µM in assay [2]; greater than 30 µM in assay [3]; 11 µM in assay [4]; greater than 30 µM in assay [5]. In addition, the AC50 (in [6]; at Glucocorticoid receptor; in [7]; in assay [8]) was greater than 30 µM in each case.

Regarding `Nc1cc(-c2ccncc2)c[nH]c1=O` [INAMRINONE], the AC50 at Estrogen receptor is greater than 30 µM; in assay [1], greater than 30 µM; in assay [2] it was greater than 30 µM; in assay [3], greater than 10 µM; in assay [4], greater than 10 µM; in [6], greater than 10 µM. The AC50 was greater than 10 µM on D(1A) dopamine receptor, greater than 30 µM on Glucocorticoid receptor, greater than 30 µM in [7] and greater than 30 µM in [8].

Consider `C/C(=C\C(=O)OCCCCCCCCC(=O)O)C[C@@H]1OC[C@H](C[C@@H]2O[C@H]2[C@@H](C)[C@H](C)O)[C@@H](O)[C@H]1O` [MUPIROCIN], for which the concentration at half-maximal activity (AC50) at Estrogen receptor is greater than 10 µM; in assay [1] it was greater than 10 µM; in assay [2], greater than 30 µM; in [3], greater than 10 µM; in [4], greater than 10 µM; in assay [5], greater than 30 µM. The AC50 in assay [6] was greater than 10 µM; at D(1A) dopamine receptor, greater than 10 µM; on Glucocorticoid receptor it was greater than 10 µM; in [7], greater than 30 µM.

On to `O=C1CN=C(c2ccccc2)c2cc([N+](=O)[O-])ccc2N1` [NITRAZEPAM], for which the AC50 is greater than 10 µM on Estrogen receptor; greater than 10 µM in assay [1]; greater than 10 µM in [2]; greater than 10 µM in assay [3]; greater than 10 µM in [4]; 30 µM in [5]. Moreover, the AC50 was greater than 10 µM in [6], greater than 30 µM at D(1A) dopamine receptor, greater than 10 µM at Glucocorticoid receptor and greater than 30 µM in assay [7].

`OCc1cc(C(O)CNCCCCCCOCCCCc2ccccc2)ccc1O` (centres undefined) [SALMETEROL]: the AC50 on Estrogen receptor is greater than 30 µM; in assay [1], greater than 30 µM; in assay [2], 0.845 µM; in assay [3], 12 µM; in assay [5], greater than 30 µM; at D(1A) dopamine receptor it was greater than 30 µM. In addition, the concentration at half-maximal activity (AC50) on Glucocorticoid receptor was greater than 30 µM; in [7] it was 8.1 µM; in assay [8], greater than 30 µM.

Values taken from ChEMBL document CHEMBL5291721, “A preclinical secondary pharmacology resource illuminates target-adverse drug reaction associations of marketed drugs” (Nat Commun, 2023).
